These results are taken from patent EP4647073A1, “MURRAYA KOENIGII IN THE TREATMENT OF UPPER RESPIRATORY TRACT INFECTIONS” (Nutraceutical Technology Pharma Biotech S.r.l., priority 2024, dated 2025).

For one data set, the system named is S. pyogenes (ATCC 19615). Briefly: Agar well diffusion method, antibacterial activity. The data set is classed as cell-based. The conditions noted are these: Streptococcus pyogenes. The procedure: The agar well diffusion method was used for the assessment of the antibacterial activity of M. koenigii leaves against S. pyogenes (ATCC 19615). Six DMSO extracts of M. koenigii leaves from different geographical origins were tested. Antibacterial assay was performed on M17 agar ([…] Abruzzi, Italy). An overnight anaerobic culture of S. pyogenes grown at 37°C, was diluted in order to obtain a suspension containing approximately 1×10^8 CFU/ml. Each agar plate was spread with the microbial suspension. Using a sterile agar gel puncher, equidistant wells were created and filled with 0.1 ml of each sample. The plates were allowed to stand for 30 minutes to allow pre-diffusion of the tested samples, and thereafter incubated at 37°C for 24 h under anaerobic conditions. After incubation, the diameter of any zone of inhibition surrounding each well was measured. Each experiment was performed in triplicates and the means were calculated. […] Louis, USA). Each standard was weighed separately, solubilized in methanol and diluted in DMSO. […] Antibacterial assay was performed on M17 agar ([…] Abruzzi, 25 Italy). An overnight anaerobic culture of S. pyogenes, grown at 37°C, was diluted approximately to obtain 1×10^8 CFU/ml and spread on M17 agar. Using a sterile agar gel puncher, equidistant wells were created and filled with 0.1 ml of each extraction solvent. The plate was allowed to stand for 30 minutes to allow pre-diffusion of the tested samples, and thereafter incubated at 37°C. The zone of inhibition around each well was measured in mm.

The nature of data set [1]: Release of carbazole alkaloids from the chewing gum of Example 5 during chewing (HPLC/DAD of chewed bolus). The data set is classed as in vivo, healthy adult volunteers. As to conditions: average of three chewers. The procedure: The chromatographic separation was performed by an HPLC/DAD system series 1200 from Agilent (Agilent Technologies, Santa […], California, USA); the analytical column was a Kinetex C18 5um, 100A (150 mm x 3.00 mm i.d.) from Phenomenex (Phenomenex SRL, Bologna; Italy) equipped with a security guard column. […] The elution of the analytes was carried out with a gradient method: initial condition was 40% of ACN, then brought to 90% in 10 minutes and kept for 8 minutes. […] An aliquot of each solution was withdrawn in order to prepare a mix standard solution and a calibration curve from 0.5 ppm to 4.0 ppm in MeOH was created for the quantification of samples. […] Each chewed bolus of the resulting 4 chewing tests, was frozen overnight and then weighed, ground and added with MeOH. The supernatant was filtered and analysed by HPLC/DAD. In Table 4 below, the release results are reported, being focused on the main actives of M. koenigii. Table 4: […]

A further data set deals with S. pyogenes. Briefly: TTC assay (broth microdilution) for MIC and MBC determination. The data set is classed as cell-based, Streptococcus pyogenes. The conditions noted are these: for inhibition at 250 µg/mL (stock) / OD 480 nm (24 h) / OD 600 nm (24 h) / log10 (CFU/ml): duplicate wells. The procedure:
Louis, MO) as colorimetric indicator. In the presence of living bacteria, the colourless TTC is reduced to red formazan. […] Two different stock solutions of M. koenigii leaves were prepared in DMSO at concentrations of 100 mg/ml (1:10) and 20 mg/ml (1:50). Two-fold dilution method was performed in order to obtain a concentration range of 0.04 mg/ml to 10 mg/ml for the 20 mg/ml stock solution and of 0.2 mg/ml to 50 mg/ml for the 100 mg/ml stock solution. An overnight anaerobic culture of S. pyogenes grown at 37°C was adjusted to a final concentration of 1x10^7 CFU/ml in M17 broth ([…] Abruzzi, Italy) and added to the microplate wells containing different concentrations of the extract, in order to obtain a final inoculum of approximately 1x10^6 CFU/well. The microplate was incubated at 37°C under anaerobic conditions for 24 h. […] To discriminate between bactericidal/bacteriostatic activity of the extract, 100 μl aliquots from each tested dilution were used to calculate the number of viable cells (CFU/ml) by plate count method and 10 μl aliquots from the same wells were streaked on M17 agar plates (Figure 3). […] TTC assay is depicted in Figure 4, where a picture of the microplate used for the TTC assay is reported. […] Table 2: Antibacterial activity of DMSO extract of M. koenigii leaves against S. pyogenes. All results are the mean of triplicates wells. […] Medium M17 (blank), positive control (S. pyogenes without M. koenigii), Ext. (Extract). A stock solution of amoxicillin (Sigma-Aldrich, St. Louis, USA) was prepared at a concentration of 0.25 mg/ml in DMSO. The antibacterial properties against S. pyogenes of the plant extract alone, amoxicillin alone and their combination were evaluated by TTC assay as mentioned above. For the experiment, the 20 mg/ml stock solution of M. koenigii leaves was used and a solution containing 0.25 mg/ml amoxicillin and 20 mg/ml extract was prepared.
(In broth dilution the organism is exposed to a series of concentrations in liquid medium.)

Where [2] appears, read: Table 3, dilution 1:2 of stock (amoxicillin 0.25 mg/ml; mix 0.25 mg/ml amoxicillin and 20 mg/ml extract).
The mark [3] stands for this setting: Table 3, dilution 1:4 of stock (amoxicillin 0.25 mg/ml; mix 0.25 mg/ml amoxicillin and 20 mg/ml extract).
The mark [4] stands for this setting: Table 3, dilution 1:8 of stock (amoxicillin 0.25 mg/ml; mix 0.25 mg/ml amoxicillin and 20 mg/ml extract).
[5] abbreviates: Table 3, dilution 1:16 of stock (amoxicillin 0.25 mg/ml; mix 0.25 mg/ml amoxicillin and 20 mg/ml extract).
[6] abbreviates: Table 3, dilution 1:32 of stock (amoxicillin 0.25 mg/ml; mix 0.25 mg/ml amoxicillin and 20 mg/ml extract).
[7] abbreviates: Table 3, dilution 1:64 of stock (amoxicillin 0.25 mg/ml; mix 0.25 mg/ml amoxicillin and 20 mg/ml extract).
The mark [8] stands for this setting: Table 3, dilution 1:128 of stock (amoxicillin 0.25 mg/ml; mix 0.25 mg/ml amoxicillin and 20 mg/ml extract).

Turning to `COc1cc2[nH]c3c4c(c(C)cc3c2cc1OC)OC(C)(C)C=C4` [Koenigicine], in the data set with S. pyogenes (ATCC 19615) (ATCC19615, standard at 3 µg/ml, 0.1 ml per well, M17 agar, 37°C), the zone of inhibition at 3 µg/mL is roughly 20 mm.

With `CC(C)=CCCC1(C)C=Cc2c(c(C)cc3c2[nH]c2ccccc23)O1` (centres unmarked) [Mahanimbine], the zone of inhibition at 6 µg/mL in the data set with S. pyogenes (ATCC 19615) (ATCC19615, read-out: inhibition zone) was roughly 20 mm. Besides, the “% release” value is listed as 0.0% in data set [1] (chewing gum of Example 5, chewing time 0.0 min); 54.7% in data set [1] (chewing gum of Example 5, chewing time 5.0 min); 51.5% in data set [1] (chewing gum of Example 5, chewing time 10.0 min); 59.7% in data set [1] (chewing gum of Example 5, chewing time 15.0 min); 54.7% in data set [1] (chewing gum of Example 5, chewing time 20.0 min).

Usually inhibition stands for the drop in the measured response relative to a control, in per cent. In general, MIC refers to the lowest concentration that inhibits growth of the organism. By MBC is commonly meant the lowest tested concentration that kills the bacteria rather than only halting them. `CC1(C)S[C@@H]2[C@H](NC(=O)[C@H](N)c3ccc(O)cc3)C(=O)N2[C@H]1C(=O)O` [Amoxicillin, amoxicillin]: the inhibition at 250 µg/mL (stock) in the data set with S. pyogenes (Streptococcus pyogenes, Table 3, dilution 1:2 of stock (amoxicillin 0.25 mg/ml; mix 0.25 mg/ml amoxicillin and 20 mg/ml extract)) amounted to 100%; in the data set on S. pyogenes (Streptococcus pyogenes, Table 3, dilution 1:4 of stock (amoxicillin 0.25 mg/ml; mix 0.25 mg/ml amoxicillin and 20 mg/ml extract)), 100%; in the data set with S. pyogenes (Streptococcus pyogenes, Table 3, dilution 1:8 of stock (amoxicillin 0.25 mg/ml; mix 0.25 mg/ml amoxicillin and 20 mg/ml extract)) it was 100%; in the data set on S. pyogenes (Streptococcus pyogenes, Table 3, dilution 1:16 of stock (amoxicillin 0.25 mg/ml; mix 0.25 mg/ml amoxicillin and 20 mg/ml extract)), 48.6%; with S. pyogenes (Streptococcus pyogenes, Table 3, dilution 1:32 of stock (amoxicillin 0.25 mg/ml; mix 0.25 mg/ml amoxicillin and 20 mg/ml extract)) it was 40.6%; in the data set on S. pyogenes (Streptococcus pyogenes, Table 3, dilution 1:64 of stock (amoxicillin 0.25 mg/ml; mix 0.25 mg/ml amoxicillin and 20 mg/ml extract)), 41.5%. Besides, the inhibition at 250 µg/mL (stock) in the data set with S. pyogenes (Streptococcus pyogenes, Table 3, dilution 1:128 of stock (amoxicillin 0.25 mg/ml; mix 0.25 mg/ml amoxicillin and 20 mg/ml extract)) is 42%. Besides, the MIC in the data set on S. pyogenes (Streptococcus pyogenes, M17 broth, 37°C, anaerobic, 24 h) was 16 µg/mL. In the data set on S. pyogenes (Streptococcus pyogenes, M17 broth, 37°C, anaerobic, 24 h, complete inhibition of growth), the MBC came out at 31 µg/mL. Moreover, the “OD 480 nm (24 h)” value was 0.003 in the data set with S. pyogenes (setting [2]); 0.001 in the data set on S. pyogenes (setting [3]); 0.005 in the data set with S. pyogenes (setting [4]); 0.057 in the data set with S. pyogenes (setting [5]); 0.098 with S. pyogenes (setting [6]); 0.120 in the data set with S. pyogenes (setting [7]). In the data set on S. pyogenes (setting [8]), the “OD 480 nm (24 h)” value turned out to be 0.140. Also, the “OD 600 nm (24 h)” value stood at 0.002 with S. pyogenes (setting [2]); 0.011 in the data set with S. pyogenes (setting [3]); 0.026 in the data set with S. pyogenes (setting [4]); 0.088 in the data set on S. pyogenes (setting [5]); 0.137 in the data set on S. pyogenes (setting [6]); 0.158 with S. pyogenes (setting [7]). The “OD 600 nm (24 h)” value in the data set on S. pyogenes (setting [8]) was 0.161. Further, the “log10 (CFU/ml)” value in the data set on S. pyogenes (setting [2]) was 0.00 log10 (CFU/ml); with S. pyogenes (setting [3]), 0.00 log10 (CFU/ml); in the data set with S. pyogenes (setting [4]) it was 0.00 log10 (CFU/ml); in the data set on S. pyogenes (setting [5]), 4.51 log10 (CFU/ml); in the data set with S. pyogenes (setting [6]), 5.20 log10 (CFU/ml); in the data set with S. pyogenes (setting [7]) it was 5.12 log10 (CFU/ml). Moreover, in the data set on S. pyogenes (setting [8]), the “log10 (CFU/ml)” value was 5.08 log10 (CFU/ml).

In turn, `COc1ccc2[nH]c3c4c(c(C)cc3c2c1)OC(C)(C)C=C4` [Koenimbine] gave a zone of inhibition at 4 µg/mL in the data set with S. pyogenes (ATCC 19615) (ATCC19615, standard at 4 µg/ml, 0.1 ml per well, M17 agar, 37°C) of roughly 18 mm.
